In one assay the test system is TLR2. Nature of the assay: TNF-α production by splenocytes in response to TLR2 ligand PGN. Format: cell-based, C57BL/6 mice. Conditions: for TNF-α mean: 48 hours, OPLT 1.85 μg/ml, dexamethasone 100 μg/ml, rapamycin 625 μg/ml. How it is done: (§1) OPLT was dissolved in sterile PBS at 100 μM, and pH was adjusted to approximately 7.5. Splenocytes from naïve C57BL/6 mice were stained with CFSE, prepared, cultured, and dosed. Cells were seeded at 2×10^5 cells/well.
(§2) To evaluate the effects of OPLT on cytokine production by splenocytes in response to different TLR ligands, splenocytes were incubated with one of the following TLR ligands in triplicate: PGN, LPS, ODN CPG, dsRNA, or ssRNA, as per group assignment. Cells were then treated as follows: • Control: No treatment; • OPLT: Cells were dosed with 1.85 μg/ml; • Dexamethasone: Cells were dosed with 100 μg/ml; • Rapamycin: Cells were dosed with 625 μg/ml. Cells were incubated for 48 hours before collecting the supernatant for TNF-α analysis.
(§3) The supernatant was collected for TNF-α analysis by ELISA.

The test system of a further assay is FoxP3+/CD4+ T-cell. Put plainly: Ex vivo flow cytometry of splenocytes for FoxP3+/CD4+ T-cells after FVIII treatment period (Example 1). Format: in vivo, mice. On the procedure: OPLT was dissolved in sterile PBS, and pH was adjusted to approximately 7.5. OPLS, a comparator compound, was dissolved in sterile PBS, and pH was adjusted to approximately 7.5. FVIII in PBS was used as a control. For treatment, FVIII was co-mixed with OPLT, OPLS or diluted in PBS before administration, as per group assignment for each animal. For re-challenge, FVIII was administered alone SC to all animals regardless of group assignment. […] For a head-to-head comparison, 5 mg/injection was selected for OPLT. FVIII was dosed at 1 μg/injection.
One week after the last dose in the treatment period, one animal from each group was selected at random for ex vivo analysis of the T-cell population. Spleens were collected and a single-cell suspension was prepared for cellular phenotyping by flow cytometry. Cells were stained and gated for CD4+ T-cells. FoxP3 expression level was evaluated for each animal.
Background: In flow cytometry, cells or beads pass a laser one at a time.

In assay [1] the test system is B57BL6 Mice. Put plainly: Anti-GAA titer analysis in mice given GAA with OPLT or liposomal OBLT, then GAA re-challenge (Example 2). Format: in vivo. How it is done:
OPLT and OBLT were dissolved in sterile PBS, and pH was adjusted to approximately 7.5. Liposomal OBLT was prepared using DMPC. GAA in PBS was used as a control. For the tolerance induction (or treatment) period, GAA was co-mixed with OPLT or liposomal OBLT, or diluted in PBS before administration as per group assignment for each animal. For the re-challenge protocol, GAA was administered IV alone to all animals regardless of group assignment. GAA was administered with 5 mg of OPLT SC QW. […] For all SC groups, GAA was dosed at 1 μg/injection (1 μg/week). For PO groups, GAA was dosed at 0.14 μg/dose QD (approximately 1 μg/week).
The objective of the treatment phase was to test the ability of OPLT or liposomal OBLT to reduce the immunogenicity of GAA, as an antigen, compared to animals administered GAA alone. Animals were injected with GAA, GAA+OPLT, or GAA+liposomal OBTL SC QW for 4 weeks. Blood samples were collected for anti-GAA analysis after a one-week washout period from the last dose. For oral tolerance, animals were administered GAA or GAA+liposomal OBLT PO, QD for 4 weeks. GAA was also administered SC QW to both groups during the treatment period. Blood samples were collected for anti-GAA titer analysis after a one-week washout period from the last dose.
The objective of the re-challenge phase of the study was to evaluate the duration of tolerance. […] After the washout period, animals were injected with (1 μg) GAA SC QW for 2 weeks. Blood samples were collected one week after each injection for anti-GAA titer analysis.

For a further assay, the system named is TLR9. Put plainly: TNF-α production by splenocytes in response to TLR9 ligand ODN CpG. Format: cell-based, C57BL/6 mice. The following applies: for TNF-α mean: 48 hours, OPLT 1.85 μg/ml, dexamethasone 100 μg/ml, rapamycin 625 μg/ml. On the procedure: as §1, §2, §3
For assay [2], the system named is B57BL6 Mice. Nature of the assay: Anti-AAV9 titer analysis in mice given AAV9 with OPLT or liposomal OBLT (Example 3). Format: in vivo. On the procedure: OPLT and OBLT were dissolved in sterile PBS, and pH was adjusted to approximately 7.5. Liposomal OBLT was prepared using […]. AAV9 in PBS was used as a control. For treatment, AAV9 was co-mixed with OPLT or liposomal OBLT before administration, as per group assignment for each animal. AAV9 was administered with 5 mg of OPLT SC QW, 50 μg OBLT SC QW as liposomal OBLT or 7.2 μg OBLT PO QD as liposomal OBLT. For all SC groups, AAV9 was dosed at 10^6 particles/injection. For PO groups, AAV9 was dosed at 1.43×10^5 particles/injection.
Animals were injected with AAV9, AAV9+OPLT, or AAV9+liposomal OBLT SC QW for 4 weeks. Blood samples were collected for anti-AAV9 titer analysis after a one-week washout period from the last dose. For oral tolerance, animals were administered AAV9 or AAV9+liposomal OBLT PO, QD for 4 weeks. AAV9 was also administered SC QW to both groups during the treatment period. Blood samples were collected for anti-AAV9 titer analysis after a one-week washout period from the last dose.

Molecules are shown by their SMILES.

`N[C@@H](Cc1ccc(OP(=O)(O)O)cc1)C(=O)O` [OPLT, O-phospho-L-tyrosine]: the TNF-α mean in the assay on TLR2 (PGN 0 ng/ml) stood at 0 pg/mL; in the assay on TLR2 (PGN 1 ng/ml, CTL 730) it was 445 pg/mL; in the assay on TLR2 (PGN 10 ng/ml, CTL 725), 613 pg/mL; with TLR2 (PGN 100 ng/ml, CTL 834) it was 827 pg/mL; in the assay with TLR9 (ODN CpG 0 ng/ml), 0 pg/mL; with TLR9 (ODN CpG 1 ng/ml, CTL 0) it was 0 pg/mL. Besides, the TNF-α mean was 0 pg/mL with TLR9 (ODN CpG 10 ng/ml, CTL 338) and 1178 pg/mL with TLR9 (ODN CpG 100 ng/ml, CTL 1220). Also, the “effect on splenocytes' TNF-α response to the TLR2 ligand PGN (in words)” value in the assay on TLR2 (PGN 1, 10, 100 ng/ml, compared to control) is “statistically significant reduction in TNF-α in the low PGN dose group (1 ng/ml), but not the mid or high PGN dose group”. For the same molecule, the “increase in FoxP3+/CD4+ compared to the FVIII alone group” value in the assay with FoxP3+/CD4+ T-cell (5 mg/injection co-mixed with FVIII 1 μg SC QW 4 weeks, splenocytes of one animal per group one week after last dose) worked out at 188%. Moreover, in the assay on FoxP3+/CD4+ T-cell (5 mg/injection co-mixed with FVIII SC QW 4 weeks), the “increase in FoxP3+/CD4+ compared to OPLS+FVIII treatment” value is given as 73%. Besides, the “FoxP3+/CD4+ T-cell (flow cytometry of splenocytes)” value with FoxP3+/CD4+ T-cell (5 mg/injection co-mixed with FVIII SC QW 4 weeks, one animal per group, FVIII alone 2.94) worked out at 8.47. In the assay on B57BL6 Mice [1] (SC QW 4 weeks, 5 mg OPLT + GAA 1 μg, after one-week washout, controls 6/6), the “animals that developed anti-GAA titers” value is given as 4/6. In the assay on B57BL6 Mice [1] (SC QW 4 weeks, OPLT 5 mg, liposomal OBLT 50 μM (1.3 μg OBLT/injection), after one-week washout), the “anti-GAA titers versus control groups” value is “statistically lower than the controls and comparators”. For the same molecule, the “immune response to GAA re-challenge” value in the assay on B57BL6 Mice [1] (SC treatment group, weeks 1 and 2 of re-challenge, statistically significant at week 2 only) was “did not develop a robust immune response”. Further, the “effect on splenocytes' TNF-α response to the TLR9 ligand ODN CpG (in words)” value in the assay on TLR9 (high dose of ODN CpG) was “did not”; in the assay on TLR9 (mid-dose of ODN CpG, statistically significant), “reduced splenocytes' response to mid-dose of the TLR9 ligand ODN CpG”. Also, the “anti-AAV9 immune response/titers versus AAV9 alone control” value in the assay with B57BL6 Mice [2] (SC QW 4 weeks) is on record as “did not elicit an immune response”. In addition, the “animals that developed measurable anti-AAV9 antibodies” value with B57BL6 Mice [2] (SC QW 4 weeks with AAV9, after one-week washout, AAV9 SC control 8/8) is reported as 0/8.

Source of the values: patent publication US20240173389A1, “Compositions and Methods For Reducing Immune Intolerance” (LAPIX THERAPEUTICS, INC., priority 2021, published 2024).
